# Measured values: patent US7754896B2, “Indol-alanine derivatives as selective S1P4-agonists” (Novartis AG, priority 2004, dated 2010)
# Target: T1, S1P4 (Homo sapiens, UniProt O95977)
# T1 construct: expressed in transfected cells
# T1 sequence (O95977 1-384): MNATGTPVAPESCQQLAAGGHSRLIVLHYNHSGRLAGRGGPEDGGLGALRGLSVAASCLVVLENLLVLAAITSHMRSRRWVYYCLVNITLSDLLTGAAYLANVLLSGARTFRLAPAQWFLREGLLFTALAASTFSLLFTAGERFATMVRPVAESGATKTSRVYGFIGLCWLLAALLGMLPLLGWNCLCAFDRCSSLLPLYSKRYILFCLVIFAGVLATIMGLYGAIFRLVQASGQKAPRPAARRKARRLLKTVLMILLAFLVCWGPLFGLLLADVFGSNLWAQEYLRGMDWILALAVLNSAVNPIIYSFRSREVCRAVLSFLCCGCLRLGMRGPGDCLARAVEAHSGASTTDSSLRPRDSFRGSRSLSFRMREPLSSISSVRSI
# Assay: GTPγS binding assay, S1P4
# Format: biochemical
# Settings: CHO cells expressing S1P4
# Experimental: An expression vector for the human S1P4 gene (HSEDG4; GenBank Accession Number AJ000479) fused to the c-myc peptide tag at the C-terminus is obtained as described in Van Brocklyn et al. 2000, Blood 95(8), 2624. The encoding DNA for the S1P4-myc fusion protein is cloned in the mammalian expression vector pRc/CMV (Invitrogen), which confers G418 resistance for the selection of stable mammalian cells. The DNA sequence of the S1P4 insert is determined on both strands. […] The S1P4-myc cDNA is inserted into the pRc/CMV vector using HindIII/XbaI.
# To develop stable cell lines expressing the c-myc tagged S1P4 receptor 5 μg of plasmid pRc/CMV myc-S1P4 is cut using restriction endonuclease PvuI, which cleaves the plasmid once. The linearized plasmid is then precipitated using a final concentration of 0.3M sodium acetate, pH5.0 and 66% ethanol. After centrifugation and washing, the DNA pellet is dissolved in 30 μl water. […] Individual clones that grew after the sort and selection procedure are expanded and one clone is finally selected based on the level of S1P4 mRNA expression determined by TaqMan quantitative PCR analysis.
# Membrane proteins are prepared from wild type CHO-K1 and the CHO cell clones expressing human S1P4. […] The protein concentration is determined using the Bio Rad Protein Assay and human IgG as standard. […]
structure (smiles),measurement,value
NC(CNC(=O)c1cc2c(-c3ccccc3Cc3ccccc3)cccc2[nH]1)C(=O)O (stereo not shown) [Example 2],EC50,250 nM
